Test results reported in ChEMBL document CHEMBL1201862, “PubChem BioAssay data set” (2004).
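Growth conditions: 96-well plates. Treatment: test compound, 48 hours, 5 concentrations. Analysis: linear interpolation between bracketing concentrations; unreached endpoints set to highest concentration. The concentration for 50% growth inhibition is given as GI50.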 Calls of active or inactive are those of the source. No stated cut-off is given here; in the data, active = GI50 up to about 1.1 µM and inactive = higher.

Experiments:
Assay in all cases: inhibition of tumour cell growth, NCI panel, 48 h
786-0 = test system: 786-0
A549 = test system: A549
ACHN = test system: ACHN
HCT-15 = test system: HCT-15
HOP-62 = test system: HOP-62
HT-29 = test system: HT-29
M14 = test system: M14
MDA-N = test system: MDA-N
MOLT-4 = test system: MOLT-4
OVCAR-4 = test system: OVCAR-4
PC-3 = test system: PC-3
RPMI-8226 = test system: RPMI-8226
SF-268 = test system: SF-268
SN12C = test system: SN12C
SNB-75 = test system: SNB-75
T47D = test system: T47D
UACC-257 = test system: UACC-257
HCC 2998 = test system: HCC 2998
LOX IMVI = test system: LOX IMVI
TK-10 = test system: TK-10

SMILES	GI50 (786-0)	GI50 (A549)	GI50 (ACHN)	GI50 (HCT-15)	GI50 (HOP-62)	GI50 (HT-29)	GI50 (M14)	GI50 (MDA-N)	GI50 (MOLT-4)	GI50 (OVCAR-4)	GI50 (PC-3)	GI50 (RPMI-8226)	GI50 (SF-268)	GI50 (SN12C)	GI50 (SNB-75)	GI50 (T47D)	GI50 (UACC-257)	GI50 (HCC 2998)	GI50 (LOX IMVI)	GI50 (TK-10)
Cc1[nH]c(-c2ccccc2)c(O)c1C(=O)OC12CC3CC(CC(C3)C1)C2	14 µM (inactive)	12.1 µM (inactive)	16.1 µM (inactive)	11.9 µM	14.7 µM (inactive)	3.99 µM (inactive)	12.4 µM (inactive)	17.4 µM (inactive)	12.5 µM (inactive)	16.3 µM (inactive)	15.5 µM (inactive)	37 µM (inactive)	13.9 µM (inactive)	16.4 µM (inactive)	10.8 µM (inactive)	15.8 µM (inactive)	16.5 µM (inactive)	–	–	–
Cc1oc2c(c1C)S(=O)(=O)C(C#N)C(c1ccccc1)N2 (stereo not drawn)	40.9 µM (inactive)	44.7 µM (inactive)	> 100 µM (inactive)	38.7 µM	> 100 µM (inactive)	67.6 µM (inactive)	40.4 µM (inactive)	29 µM (inactive)	20.6 µM (inactive)	29.6 µM (inactive)	66.5 µM (inactive)	–	56 µM (inactive)	49.8 µM (inactive)	40.2 µM (inactive)	62.5 µM (inactive)	56.6 µM (inactive)	53.8 µM (inactive)	43.8 µM (inactive)	> 100 µM (inactive)
COc1cc2c(cc1OC)C(=O)/C(=C/c1ccc(O)cc1)CC2	> 10 µM (inactive)	> 10 µM (inactive)	> 10 µM (inactive)	> 10 µM	> 10 µM (inactive)	> 10 µM (inactive)	> 10 µM (inactive)	> 10 µM (inactive)	> 10 µM (inactive)	> 10 µM (inactive)	> 10 µM (inactive)	> 10 µM (inactive)	> 10 µM (inactive)	> 10 µM (inactive)	–	> 10 µM (inactive)	> 10 µM (inactive)	> 10 µM (inactive)	> 10 µM (inactive)	> 10 µM (inactive)
C=CCCC1CCCCC/C1=N\N(C)C (stereo not drawn)	> 100 µM (inactive)	> 100 µM (inactive)	> 100 µM (inactive)	> 100 µM	> 100 µM (inactive)	> 100 µM (inactive)	> 100 µM (inactive)	> 100 µM (inactive)	> 100 µM (inactive)	> 100 µM (inactive)	> 100 µM (inactive)	> 100 µM (inactive)	> 100 µM (inactive)	> 100 µM (inactive)	> 100 µM (inactive)	> 100 µM (inactive)	> 100 µM (inactive)	–	> 100 µM (inactive)	> 100 µM (inactive)
N#CC1Cc2cc3c(cc21)OCO3 (stereo not drawn)	> 100 µM (inactive)	> 100 µM (inactive)	> 100 µM (inactive)	> 100 µM	> 100 µM (inactive)	> 100 µM (inactive)	> 100 µM (inactive)	> 100 µM (inactive)	> 100 µM (inactive)	> 100 µM (inactive)	> 100 µM (inactive)	–	–	> 100 µM (inactive)	> 100 µM (inactive)	> 100 µM (inactive)	> 100 µM (inactive)	> 100 µM (inactive)	> 100 µM (inactive)	> 100 µM (inactive)
CCCCCCCCCCCC[C@@H](O)[C@H]1CCC([C@H](O)CCCCC(=O)CCCCCCCC2=C[C@H](C)OC2=O)O1 (stereo partly drawn)	> 31.6 µM (inactive)	10.4 µM (inactive)	> 33.6 µM (inactive)	17.9 µM	–	14.6 µM (inactive)	15 µM (inactive)	> 35.2 µM (inactive)	2.62 µM (inactive)	> 24.9 µM (inactive)	14.6 µM (inactive)	2.5 µM (inactive)	18.1 µM (inactive)	> 39 µM (inactive)	> 37.9 µM (inactive)	15.7 µM (inactive)	7.96 µM (inactive)	> 50 µM (inactive)	2.34 µM (inactive)	> 50 µM (inactive)
CCOC(C[Se]CC(OCC)OCC)OCC	> 100 µM (inactive)	75.5 µM (inactive)	> 100 µM (inactive)	57.9 µM	–	64.9 µM (inactive)	52.8 µM (inactive)	89.7 µM (inactive)	37.8 µM (inactive)	45.3 µM (inactive)	37.9 µM (inactive)	> 100 µM (inactive)	–	–	13.2 µM (inactive)	> 100 µM (inactive)	85.1 µM (inactive)	> 100 µM (inactive)	22.9 µM (inactive)	53.6 µM (inactive)
OCCN(C1=NCCN1)/[N+](=C\c1ccccn1)[CH-]c1ccccn1	> 100 µM (inactive)	> 100 µM (inactive)	> 100 µM (inactive)	> 100 µM	> 100 µM (inactive)	> 100 µM (inactive)	> 100 µM (inactive)	> 100 µM (inactive)	> 100 µM (inactive)	> 100 µM (inactive)	> 100 µM (inactive)	12.1 µM (inactive)	> 100 µM (inactive)	> 100 µM (inactive)	> 100 µM (inactive)	> 100 µM (inactive)	> 100 µM (inactive)	> 100 µM (inactive)	> 100 µM (inactive)	–
CCOC(=O)NC(Nc1ccc(F)cc1F)(C(F)(F)F)C(F)(F)F	> 100 µM (inactive)	> 100 µM (inactive)	> 100 µM (inactive)	> 100 µM	> 100 µM (inactive)	> 100 µM (inactive)	> 100 µM (inactive)	> 100 µM (inactive)	> 100 µM (inactive)	–	> 100 µM (inactive)	> 100 µM (inactive)	> 100 µM (inactive)	> 100 µM (inactive)	> 100 µM (inactive)	> 100 µM (inactive)	> 100 µM (inactive)	> 100 µM (inactive)	> 100 µM (inactive)	> 100 µM (inactive)
COP1(=S)OCC2CCC[C@@H]2O1 (stereo partly drawn)	> 100 µM (inactive)	> 100 µM (inactive)	> 100 µM (inactive)	> 100 µM	–	> 100 µM (inactive)	> 100 µM (inactive)	> 100 µM (inactive)	> 100 µM (inactive)	> 100 µM (inactive)	> 100 µM (inactive)	> 100 µM (inactive)	> 100 µM (inactive)	> 100 µM (inactive)	> 100 µM (inactive)	> 100 µM (inactive)	> 100 µM (inactive)	> 100 µM (inactive)	–	> 100 µM (inactive)
O=c1[nH]nc(Cc2ccccc2)n1/N=C/c1c(O)ccc2ccccc12	16.7 µM (inactive)	32 µM (inactive)	22 µM (inactive)	51.6 µM	–	28.4 µM (inactive)	–	54.6 µM (inactive)	26.4 µM (inactive)	17.2 µM (inactive)	22.9 µM (inactive)	19.8 µM (inactive)	24.6 µM (inactive)	41.1 µM (inactive)	17.7 µM (inactive)	20.2 µM (inactive)	35.3 µM (inactive)	33.4 µM (inactive)	54 µM (inactive)	33 µM (inactive)
CC(=O)Nc1c(C)cc2c(nc3n2CCC3O)c1[N+](=O)[O-] (stereo not drawn)	> 100 µM (inactive)	> 100 µM (inactive)	> 100 µM (inactive)	> 100 µM	–	> 100 µM (inactive)	> 100 µM (inactive)	> 100 µM (inactive)	> 100 µM (inactive)	> 100 µM (inactive)	> 100 µM (inactive)	> 100 µM (inactive)	> 100 µM (inactive)	> 100 µM (inactive)	> 100 µM (inactive)	> 100 µM (inactive)	> 100 µM (inactive)	> 100 µM (inactive)	> 100 µM (inactive)	–
Nc1ccc(COC(O)CN2CCCCC2)cc1[N+](=O)[O-] (stereo not drawn)	> 100 µM (inactive)	> 100 µM (inactive)	> 100 µM (inactive)	> 100 µM	–	> 100 µM (inactive)	> 100 µM (inactive)	> 100 µM (inactive)	> 100 µM (inactive)	> 100 µM (inactive)	> 100 µM (inactive)	> 100 µM (inactive)	> 100 µM (inactive)	> 100 µM (inactive)	70.5 µM (inactive)	> 100 µM (inactive)	> 100 µM (inactive)	> 100 µM (inactive)	–	> 100 µM (inactive)
Clc1ccc(OCc2nnc3sc(-c4ccc(-c5ccc(Cl)cc5Cl)o4)nn23)cc1	> 100 µM (inactive)	> 100 µM (inactive)	> 100 µM (inactive)	> 100 µM	> 100 µM (inactive)	> 100 µM (inactive)	> 100 µM (inactive)	> 100 µM (inactive)	> 100 µM (inactive)	> 100 µM (inactive)	> 100 µM (inactive)	> 100 µM (inactive)	> 100 µM (inactive)	> 100 µM (inactive)	7.85 µM (inactive)	> 100 µM (inactive)	> 100 µM (inactive)	–	> 100 µM (inactive)	> 100 µM (inactive)
O=C1CC(n2cccc2)c2cc(Br)sc21 (stereo not drawn)	42 µM (inactive)	> 100 µM (inactive)	> 100 µM (inactive)	> 100 µM	> 100 µM (inactive)	> 100 µM (inactive)	> 100 µM (inactive)	55.6 µM (inactive)	16.1 µM (inactive)	> 100 µM (inactive)	> 100 µM (inactive)	26.4 µM (inactive)	> 100 µM (inactive)	43.9 µM (inactive)	7.93 µM (inactive)	48.3 µM (inactive)	> 100 µM (inactive)	–	31.9 µM (inactive)	> 100 µM (inactive)
NC1=NC(=O)C2(NN1)c1ccccc1-c1ccccc12	> 10 µM (inactive)	> 10 µM (inactive)	6.17 µM (inactive)	> 10 µM	> 10 µM (inactive)	–	> 10 µM (inactive)	> 10 µM (inactive)	> 10 µM (inactive)	–	> 10 µM (inactive)	> 10 µM (inactive)	> 10 µM (inactive)	> 10 µM (inactive)	> 10 µM (inactive)	2.42 µM (inactive)	–	> 10 µM (inactive)	> 10 µM (inactive)	> 10 µM (inactive)
